Experimental data taken from patent publication US7432093B2, “Soluble, functional apoptotic protease-activating factor 1 fragments” (The Trustees of Princeton University, priority 2004, dated 2008).
Entries after “also recorded” stand apart in the source; their conditions may differ.

T1: caspase-9 activation by the soluble Apaf-1 fragment (Homo sapiens, UniProt O14727)
T1 construct: Leu-Glu-His6 (C); made in house; host or cells: Escherichia coli BL21(DE3), pET29 (both proteins)
T1 sequence (O14727 1-591): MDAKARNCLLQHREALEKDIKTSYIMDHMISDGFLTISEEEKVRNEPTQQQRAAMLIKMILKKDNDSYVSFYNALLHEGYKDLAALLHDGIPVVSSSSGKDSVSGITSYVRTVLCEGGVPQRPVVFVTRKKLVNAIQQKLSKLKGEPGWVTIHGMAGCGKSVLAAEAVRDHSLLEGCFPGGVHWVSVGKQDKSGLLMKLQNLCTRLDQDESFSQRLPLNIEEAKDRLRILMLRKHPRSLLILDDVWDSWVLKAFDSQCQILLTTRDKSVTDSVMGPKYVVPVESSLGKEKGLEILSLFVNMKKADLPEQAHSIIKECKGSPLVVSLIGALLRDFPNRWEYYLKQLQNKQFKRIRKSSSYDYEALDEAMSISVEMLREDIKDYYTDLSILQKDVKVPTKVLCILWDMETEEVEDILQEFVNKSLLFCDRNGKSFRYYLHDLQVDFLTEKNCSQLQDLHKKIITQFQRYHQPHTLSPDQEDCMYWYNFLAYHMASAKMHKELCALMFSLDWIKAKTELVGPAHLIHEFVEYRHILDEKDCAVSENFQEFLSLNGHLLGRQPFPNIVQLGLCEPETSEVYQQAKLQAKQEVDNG
T1 sequence (P55211 1-315 partner limits assumed): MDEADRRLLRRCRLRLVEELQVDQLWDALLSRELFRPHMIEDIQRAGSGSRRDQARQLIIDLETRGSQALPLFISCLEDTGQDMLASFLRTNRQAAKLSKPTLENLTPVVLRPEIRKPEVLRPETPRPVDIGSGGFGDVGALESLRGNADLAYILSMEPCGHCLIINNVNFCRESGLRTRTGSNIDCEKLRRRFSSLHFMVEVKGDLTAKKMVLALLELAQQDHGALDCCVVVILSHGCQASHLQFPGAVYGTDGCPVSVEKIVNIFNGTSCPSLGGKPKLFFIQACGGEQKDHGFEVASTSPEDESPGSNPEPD
T1 sequence (P55211 331-416 partner limits assumed): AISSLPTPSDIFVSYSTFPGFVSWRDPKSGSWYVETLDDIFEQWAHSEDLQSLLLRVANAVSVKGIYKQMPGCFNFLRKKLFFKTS

T2: soluble Apaf-1 fragment (residues 1-591) (Homo sapiens, UniProt O14727)
T2 construct: Leu-Glu-His6 (C); made in house; host or cells: Escherichia coli BL21(DE3), pET29
T2 sequence (O14727 1-591): T1 sequence (O14727 1-591)

B1: 1-469: recombinant Apaf-1 fragment, residues 1-469 of SEQ ID NO: 1 (protein, listed as Homo sapiens)
chain: MDAKARNCLLQHREALEKDIKTSYIMDHMISDGFLTISEEEKVRNEPTQQQRAAMLIKMILKKDNDSYVSFYNALLHEGYKDLAALLHDGIPVVSSSSGKDSVSGITSYVRTVLCEGGVPQRPVVFVTRKKLVNAIQQKLSKLKGEPGWVTIHGMAGCGKSVLAAEAVRDHSLLEGCFPGGVHWVSVGKQDKSGLLMKLQNLCTRLDQDESFSQRLPLNIEEAKDRLRILMLRKHPRSLLILDDVWDSWVLKAFDSQCQILLTTRDKSVTDSVMGPKYVVPVESSLGKEKGLEILSLFVNMKKADLPEQAHSIIKECKGSPLVVSLIGALLRDFPNRWEYYLKQLQNKQFKRIRKSSSYDYEALDEAMSISVEMLREDIKDYYTDLSILQKDVKVPTKVLCILWDMETEEVEDILQEFVNKSLLFCDRNGKSFRYYLHDLQVDFLTEKNCSQLQDLHKKIITQFQRYHQ
B2: 94-591: recombinant Apaf-1 fragment, residues 94-591 of SEQ ID NO: 1 (protein, listed as Homo sapiens)
chain: VSSSSGKDSVSGITSYVRTVLCEGGVPQRPVVFVTRKKLVNAIQQKLSKLKGEPGWVTIHGMAGCGKSVLAAEAVRDHSLLEGCFPGGVHWVSVGKQDKSGLLMKLQNLCTRLDQDESFSQRLPLNIEEAKDRLRILMLRKHPRSLLILDDVWDSWVLKAFDSQCQILLTTRDKSVTDSVMGPKYVVPVESSLGKEKGLEILSLFVNMKKADLPEQAHSIIKECKGSPLVVSLIGALLRDFPNRWEYYLKQLQNKQFKRIRKSSSYDYEALDEAMSISVEMLREDIKDYYTDLSILQKDVKVPTKVLCILWDMETEEVEDILQEFVNKSLLFCDRNGKSFRYYLHDLQVDFLTEKNCSQLQDLHKKIITQFQRYHQPHTLSPDQEDCMYWYNFLAYHMASAKMHKELCALMFSLDWIKAKTELVGPAHLIHEFVEYRHILDEKDCAVSENFQEFLSLNGHLLGRQPFPNIVQLGLCEPETSEVYQQAKLQAKQEVDNG
B3: 1-591: soluble human Apaf-1 fragment, residues 1-591 (SEQ ID NO: 1), expressed in E. coli BL21(DE3) with C-terminal Leu-Glu-His6 (protein, listed as Homo sapiens)
chain: T1 sequence (O14727 1-591)
modifications: C-terminal Leu-Glu-His6 tag
B4: Full Length Apaf-1: full-length (ca. 140-kilodalton) human Apaf-1 protein expressed in E. coli (protein, listed as Homo sapiens)
chain: T1 sequence (O14727 1-591)

What was measured:
[1] = molecular target: T1, caspase-9 activation by the soluble Apaf-1 fragment; experiment: Caspase-9 activation assay (fluorogenic, LEHD-AMC); type: biochemical; conditions: for Apaf-1-mediated caspase-9 activation by nucleotide with EDTA (hydrolysis blocked): 1 millimolar EDTA; for Apaf-1-mediated caspase-9 activation by nucleotide with EDTA (hydrolysis blocked) / Apaf-1-mediated caspase-9 activation by nucleotide: FIG. 6B/6C; for Apaf-1-mediated caspase-9 activation by nucleotide: Apaf-1 2 micromolar, caspase-9 0.2 micromolar, no EDTA
Method: A fluorogenic assay was developed to monitor caspase-9 activation by the soluble Apaf-1 fragment. […] Then, caspase-9 and Apaf-1 were added to a final volume of 200 microliter and final concentrations of 0.2 micromolar and 2 micromolar, respectively. After incubation for 5 minutes at room temperature, the caspase-9 substrate LEHD-AMC (a tetrapeptide coupled to 7-amino […]) was added to the reaction at a final concentration of 200 micromolar. The conversion of the fluorogenic substrate was then measured using a Hitachi F2500 fluorescence spectrophotometer with an excitation wavelength of 380 nanometers and a fluorescence detection wavelength of 440 nanometers.

[2] = type: physicochemical, E. coli
Method: Preferably, solubility of the fragment is assessed in a lysate of a bacterial culture used to produce the fragment at a concentration of at least 1 milligram per liter of bacterial culture.
All constructs for protein expression were generated using a standard PCR-based cloning strategy, and the identity of individual clones was verified by double-stranded plasmid sequencing. A soluble Apaf-1 fragment (residues 1-591, sequence (SEQ ID NO: 1) shown in FIG. 1) was over-expressed in Escherichia coli strain BL21(DE3) using plasmid vector pET29 having the nucleotide sequence described by Jiang et al. (2000, J. Biol. Chem. 275:31199-31203) operatively ligated therein. The coding sequence included an additional sequence encoding eight amino acid residues at its carboxy-terminal end (i.e., linked to residue 591 in the translated protein). These residues (Leu-Glu-His6) included a nickel-binding hexa-histidine sequence used for metal affinity chromatographic purification of the expressed protein. Soluble Apaf-1 was purified from the cell lysate using a Ni-NTA (nitrilotriacetic acid-ligated nickel; Qiagen) chromatography column. Dithiothreitol (DTT) and ethylenediamine tetraacetic acid (EDTA) were added to the eluted fraction in final concentrations of 5 millimolar each. After incubation for 30 minutes on ice, the protein solution was applied to an anion-exchange column (Source-15Q, Pharmacia) for further purification.

[3] = molecular target: T2, soluble Apaf-1 fragment (residues 1-591); experiment: ATPase assay (TLC, conversion of (alpha-32P)ATP to ADP); type: biochemical
Method: ATPase activity was determined using a thin layer chromatography (TLC) assay designed to quantitatively measure the conversion of (alpha-^32P)ATP to ADP. Reactions were initiated by mixing the soluble Apaf-1 fragment at a final concentration of 2 micromolar with a solution containing 20 millimolar HEPES, pH 7.5, 10 millimolar DTT, 10 micromolar magnesium chloride, 0.1 micromolar (alpha-^32P)ATP, and 8 micromolar ATP. The reaction was incubated at room temperature for the indicated duration and then quenched by addition of an equal volume of developing solvent (1 molar formic acid, 0.5 molar LiCl). Samples were evaluated based on the differential mobility of ATP versus ADP on TLC using polyethyleneimine-cellulose F plates.

Row | Molecule | Apaf-1-mediated caspase-9 activation by nucleotide with EDTA (hydrolysis blocked) [1] | Apaf-1-mediated caspase-9 activation by nucleotide [1] | Solubility [2] | other results
1 | CSc1nc(N)c2ncn([C@@H]3O[C@H](COP(=O)(O)OP(=O)(O)OP(=O)(O)O)[C@@H](O)[C@H]3O)c2n1 [APM, 2-methylthio-ATP] | abrogated this effect | supported Apaf-1-mediated caspase-9 activation |  | 
2 | Nc1ncnc2c1ncn2[C@@H]1O[C@H](COP(=O)(O)OP(=O)(O)OP(O)(O)=S)[C@@H](O)[C@H]1O [ATP-gamma-S] |  | unable to support caspase-9 activation |  | 
3 | Nc1ncnc2c1ncn2[C@@H]1O[C@H](COP(=O)(O)OP(=O)(O)OP(=O)(O)O)[C@@H](O)[C@H]1O [ATP] | completely abolished the positive effect of ATP | further drastically improved caspase-9 activity |  | 
4 | Nc1nc(Cl)nc2c1ncn2[C@H]1C[C@H](O)[C@@H](COP(=O)(O)OP(=O)(O)OP(=O)(O)O)O1 [Fragment 2CdATP] | loss of this response | potent activator for caspase-9 activation |  | optimal concentration for caspase-9 activation [1]: approximately 100 micromolar
5 | Nc1ncnc2c1ncn2[C@H]1C[C@H](O)[C@@H](COP(=O)(O)OP(=O)(O)OP(=O)(O)O)O1 [dATP] | completely abolished caspase-9 activation |  |  | optimal concentration for caspase-9 activation [1]: 1 to 5 µM; Apaf-1-mediated activation of caspase-9 at higher concentrations ([1]; above the optimal range of 1-5 micromolar): reduced slightly; caspase-9 activation compared with ATP ([1]; nucleotide at 2 micromolar): greater activation of caspase-9 than did ATP
6 | B1 |  |  | + | 
7 | B2 |  |  | ++ | 
8 | B3 |  |  | ++++ | solubility and solution behavior (in words) [2]: good solubility and solution behavior; ATPase activity (appearance of ADP on TLC) ([3]; 2 micromolar fragment, magnesium present, room temperature, FIG. 6A): exhibited ATPase activity; ATPase activity on incubation with EDTA ([3]; EDTA added (magnesium removed), FIG. 6A lane 3): abrogation of the observed ATPase activity; catalytic activity of caspase-9 in the presence of Apaf-1 ([1]; absence of ATP and of the apoptosome): significantly and reproducibly elevated; also recorded: significantly improved the caspase catalytic activity
9 | B4 |  |  | − | 
